According to patent publication US11477982B2, “2-amino-5-oxyalkyl-pyrimidine derivatives and their use for controlling undesired plant growth” (Bayer CropScience Aktiengesellschaft, priority 2017, dated 2022):

Tests used:
Assay type in all cases: in vivo
LOLRI: Lolium rigidum [1] = assay: Post-emergence herbicidal effect
Outline: (§1)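 Greenhouse, sandy loam; spray at one-leaf stage (2–3 wk post-sowing); WP/EC in water + 0.5% additive, 600 l/ha; visual rating ~3 wk later vs untreated, 0–100%.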

AVEFA: Avena fatua [2] = assay: Post-emergence herbicidal effect
Outline: as §1

[3] = system: ALOMY: Alopecurus myosuroides; assay: Post-emergence herbicidal effect
Outline: as §1

[4] = system: AMARE: Amaranthus retroflexus; assay: Post-emergence herbicidal effect
Outline: as §1

SETVI: Setaria viridis [5] = assay: Post-emergence herbicidal effect
Outline: as §1

[6] = system: ECHCG: Echinochloa crus-galli; assay: Post-emergence herbicidal effect
Outline: as §1

[7] = system: ABUTH: Abutilon theophrasti; assay: Post-emergence herbicidal effect
Outline: as §1

VERPE: Veronica persica [8] = assay: Pre-emergence herbicidal effect; conditions: dosage 320 g/ha
Outline: (§2)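 Seeds sown in pots and covered with soil; compounds formulated as WP or EC were sprayed onto the soil surface as aqueous suspension/emulsion with 0.5% additive at 600 l/ha water. Greenhouse growth for about 3 weeks, then visual scoring in % versus untreated controls (100% = plants died, 0% = like control).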

[9] = system: POLCO: Polygonum convolvulus; assay: Pre-emergence herbicidal effect; conditions: for Herbicidal action against POLCO: dosage 320 g/ha
Outline: as §2

[10] = system: MATIN: Matricaria inodora; assay: Pre-emergence herbicidal effect; conditions: for Herbicidal action against MATIN: pre-emergence, dosage 320 g/ha
Outline: as §2

[11] = system: AMARE: Amaranthus retroflexus; assay: Pre-emergence herbicidal effect; conditions: for Herbicidal action against AMARE: pre-emergence, dosage 320 g/ha
Outline: as §2

VIOTR: Viola tricolor [12] = assay: Pre-emergence herbicidal effect; conditions: dosage 320 g/ha
Outline: as §2

VERPE: Veronica persica [13] = assay: Post-emergence herbicidal effect; conditions: dosage 320 g/ha
Outline: as §1

[14] = system: POLCO: Polygonum convolvulus; assay: Post-emergence herbicidal effect
Outline: as §1

STEME: Stellaria media [15] = assay: Post-emergence herbicidal effect
Outline: as §1

VIOTR: Viola tricolor [16] = assay: Post-emergence herbicidal effect
Outline: as §1

PHBPU: Ipomoea purpurea [17] = assay: Post-emergence herbicidal effect
Outline: as §1

[18] = system: MATIN: Matricaria inodora; assay: Post-emergence herbicidal effect
Outline: as §1

LOLRI: Lolium rigidum [19] = assay: Pre-emergence herbicidal effect; conditions: for Herbicidal action against LOLRI: dosage 320 g/ha
Outline: as §2

AVEFA: Avena fatua [20] = assay: Pre-emergence herbicidal effect; conditions: dosage 320 g/ha
Outline: as §2

STEME: Stellaria media [21] = assay: Pre-emergence herbicidal effect; conditions: for Herbicidal action against STEME: pre-emergence, dosage 320 g/ha
Outline: as §2

[22] = system: ALOMY: Alopecurus myosuroides; assay: Pre-emergence herbicidal effect; conditions: for Herbicidal action against ALOMY: dosage 320 g/ha
Outline: as §2

SETVI: Setaria viridis [23] = assay: Pre-emergence herbicidal effect; conditions: for Herbicidal action against SETVI: dosage 320 g/ha
Outline: as §2

[24] = system: ECHCG: Echinochloa crus-galli; assay: Pre-emergence herbicidal effect; conditions: for Herbicidal action against ECHCG: dosage 320 g/ha
Outline: as §2

PHBPU: Ipomoea purpurea [25] = assay: Pre-emergence herbicidal effect; conditions: for Herbicidal action against PHBPU: dosage 320 g/ha
Outline: as §2

[26] = system: ABUTH: Abutilon theophrasti; assay: Pre-emergence herbicidal effect; conditions: for Herbicidal action against ABUTH: dosage 320 g/ha
Outline: as §2

HORMU: Hordeum murinum = assay: Pre-emergence herbicidal effect; conditions: for Herbicidal action against HORMU: pre-emergence, dosage 320 g/ha
Outline: as §2

[27] = Table 4a, dosage 20 g of a.i./ha
[28] = Table 4b, pre-emergence as titled, dosage 80 g of a.i./ha
[29] = Table 4a, pre-emergence, dosage 20 g of a.i./ha

| SMILES | Herbicidal action against AMARE ([4]; dosage 320 g/ha) [%] | Herbicidal action against SETVI (SETVI: Setaria viridis [5]; dosage 320 g/ha) [%] | Herbicidal action against ECHCG ([6]; dosage 320 g/ha) [%] | Herbicidal action against VERPE (VERPE: Veronica persica [8]) [%] | Herbicidal action against POLCO [9] [%] | Herbicidal action against MATIN [10] [%] | Herbicidal action against AMARE [11] [%] | Herbicidal action against VIOTR (VIOTR: Viola tricolor [12]) [%] | Herbicidal action against VERPE (VERPE: Veronica persica [13]) [%] | Herbicidal action against STEME (STEME: Stellaria media [15]; dosage 320 g/ha) [%] | Herbicidal action against VIOTR (VIOTR: Viola tricolor [16]; dosage 320 g/ha) [%] | Herbicidal action against ABUTH ([7]; dosage 320 g/ha) [%] | Herbicidal action against LOLRI (LOLRI: Lolium rigidum [19]) [%] | Herbicidal action against AVEFA (AVEFA: Avena fatua [20]) [%] | Herbicidal action against STEME (STEME: Stellaria media [21]) [%] | Herbicidal action against ALOMY ([22]; pre-emergence) [%] | Herbicidal action against SETVI (SETVI: Setaria viridis [23]; pre-emergence) [%] | Herbicidal action against ECHCG ([24]; pre-emergence) [%] | Herbicidal action against PHBPU (PHBPU: Ipomoea purpurea [25]) [%] | Herbicidal action against ABUTH [26] [%] | also measured |
| --- | --- | --- | --- | --- | --- | --- | --- | --- | --- | --- | --- | --- | --- | --- | --- | --- | --- | --- | --- | --- | --- |
| Cc1ccc2c(c1)[C@H](Nc1ncc(C(C)(C)O)c(N)n1)[C@@H](C)C2 [drawing 10, reference compound] | 70 | 30 | 10 | – | – | – | – | – | – | – | – | – | – | – | – | – | – | – | – | – | Herbicidal action against LOLRI (LOLRI: Lolium rigidum [1]; dosage 80 g/ha): 0%; Herbicidal action against LOLRI (LOLRI: Lolium rigidum [1]; dosage 320 g/ha): 0%; Herbicidal action against AVEFA (AVEFA: Avena fatua [2]; dosage 320 g/ha): 0%; Herbicidal action against ALOMY ([3]; dosage 80 g/ha): 0%; Herbicidal action against ALOMY ([3]; dosage 320 g/ha): 10%; Herbicidal action against AMARE ([4]; dosage 80 g/ha): 60%; Herbicidal action against SETVI (SETVI: Setaria viridis [5]; dosage 80 g/ha): 0%; Herbicidal action against ECHCG ([6]; dosage 80 g/ha): 0%; Herbicidal action against ABUTH ([7]; dosage 80 g/ha): 30% |
| Cc1ccc2c(c1)[C@H](Nc1ncc(C(C)(C)O)c(N)n1)[C@@H](C)C2 [drawing 9, reference compound] | 70 | 30 | 10 | – | – | – | – | – | – | – | – | – | – | – | – | – | – | – | – | – | Herbicidal action against LOLRI (LOLRI: Lolium rigidum [1]; dosage 80 g/ha): 0%; Herbicidal action against LOLRI (LOLRI: Lolium rigidum [1]; dosage 320 g/ha): 0%; Herbicidal action against AVEFA (AVEFA: Avena fatua [2]; dosage 80 g/ha): 0%; Herbicidal action against AVEFA (AVEFA: Avena fatua [2]; dosage 320 g/ha): 0%; Herbicidal action against ALOMY ([3]; dosage 80 g/ha): 0%; Herbicidal action against ALOMY ([3]; dosage 320 g/ha): 10%; Herbicidal action against ECHCG ([6]; dosage 80 g/ha): 0%; Herbicidal action against ABUTH ([7]; dosage 80 g/ha): 30% |
| Cc1ccc2c(c1)[C@H](Nc1ncc(C(C)O)cn1)[C@@H](C)C2 (stereo partly drawn) [Example 1.2] | 100 | 90 | 100 | 100 | 100 | 100 | 100 | 100 | 90 | 100 | 80 | 80 | – | – | – | – | – | – | – | – | Herbicidal action against POLCO ([14]; dosage 80 g/ha): 90%; Herbicidal action against POLCO ([14]; dosage 320 g/ha): 90%; Herbicidal action against AVEFA (AVEFA: Avena fatua [2]; dosage 80 g/ha): 60%; Herbicidal action against AVEFA (AVEFA: Avena fatua [2]; dosage 320 g/ha): 80%; Herbicidal action against STEME (STEME: Stellaria media [15]; dosage 80 g/ha): 90%; Herbicidal action against AMARE ([4]; dosage 80 g/ha): 100%; Herbicidal action against SETVI (SETVI: Setaria viridis [5]; dosage 80 g/ha): 90%; Herbicidal action against ECHCG ([6]; dosage 80 g/ha): 40%; Herbicidal action against PHBPU (PHBPU: Ipomoea purpurea [17]; dosage 80 g/ha): 40% |
| Cc1ccc2c(c1)[C@H](Nc1ncc(C(C)(C)O)c(N)n1)[C@@H](C)C2 [drawing 12, reference compound] | – | – | – | – | – | – | – | – | – | 0 | – | – | – | – | – | – | – | – | – | – | Herbicidal action against POLCO ([14]; dosage 80 g/ha): 0%; Herbicidal action against POLCO ([14]; dosage 320 g/ha): 0%; Herbicidal action against STEME (STEME: Stellaria media [15]; dosage 80 g/ha): 0%; Herbicidal action against MATIN ([18]; dosage 80 g/ha): 0%; Herbicidal action against MATIN ([18]; dosage 320 g/ha): 60%; Herbicidal action against VIOTR (VIOTR: Viola tricolor [16]; dosage 80 g/ha): 60%; Herbicidal action against PHBPU (PHBPU: Ipomoea purpurea [17]; dosage 320 g/ha): 50% |
| CCc1ccc2c(c1)[C@H](Nc1ncc(C(C)O)c(C)n1)CC2 (stereo partly drawn) [Example 1.50] | 90 | 90 | 100 | 100 | 100 | 100 | 100 | 100 | 90 | 100 | 90 | 80 | 100 | 100 | 100 | 100 | 100 | 100 | 100 | 100 | Herbicidal action against HORMU (HORMU: Hordeum murinum): 90% |
| Cc1nc(N[C@@H]2CCc3ccccc32)ncc1C(C)(C)O [Example 1.54] | 90 | 80 | 100 | 100 | 100 | 100 | 100 | 100 | 90 | 90 | 90 | 80 | 100 | 80 | 100 | 100 | 100 | 100 | 100 | 100 | Herbicidal action against HORMU (HORMU: Hordeum murinum): 100% |
| COC(C)(C)c1cnc(N[C@H]2c3cc(C)ccc3C[C@@H]2C)nc1 [Example 1.24] | 90 | 90 | 100 | 100 | 100 | 100 | 100 | 100 | 90 | 100 | 90 | 90 | 100 | 100 | 100 | 100 | 100 | 100 | 90 | 100 | Herbicidal action against HORMU (HORMU: Hordeum murinum): 100% |
| C#CC(C)(O)c1cnc(N[C@H]2c3cc(C)ccc3C[C@@H]2C)nc1 (stereo partly drawn) [Example 1.18] | 90 | 90 | 100 | 100 | 100 | 100 | 100 | 100 | 100 | 100 | 90 | 90 | 100 | 100 | 100 | 100 | 100 | 100 | 100 | 100 | Herbicidal action against HORMU (HORMU: Hordeum murinum): 100% |
| Cc1ccc2c(c1)[C@H](Nc1ncc([C@H](C)O)c(N)n1)[C@@H](C)C2 (racemic) [drawing 11, reference compound] | – | – | – | – | – | – | – | – | – | – | – | – | – | – | – | – | – | – | – | – | Herbicidal action against AVEFA (AVEFA: Avena fatua [2]; dosage 80 g/ha): 0%; Herbicidal action against AVEFA (AVEFA: Avena fatua [2]; dosage 320 g/ha): 50%; Herbicidal action against AMARE ([4]; dosage 80 g/ha): 80% |
| Cc1ccc2c(c1)[C@H](Nc1ncc(C(C)O)c(C)n1)CCC2 (stereo partly drawn) [Example 1.48] | 90 | 90 | 100 | 100 | 100 | 100 | 100 | 100 | 90 | 90 | 80 | 80 | 100 | 90 | 100 | 100 | 100 | 100 | 90 | 100 | Herbicidal efficacy against LOLRI (LOLRI: Lolium rigidum [19]; [27]): 90; Herbicidal efficacy against POLCO [9, 27]: 100; Herbicidal efficacy against STEME (STEME: Stellaria media [21]; [28]): 80; Herbicidal efficacy against MATIN [10, 28]: 70; Herbicidal efficacy against ALOMY [22, 29]: 70; Herbicidal efficacy against ALOMY [22, 28]: 50; Herbicidal efficacy against AMARE [11, 28]: 80; Herbicidal efficacy against SETVI (SETVI: Setaria viridis [23]; [29]): 100; Herbicidal efficacy against SETVI (SETVI: Setaria viridis [23]; [28]): 70; Herbicidal efficacy against ECHCG [24, 29]: 80; Herbicidal efficacy against ECHCG [24, 28]: 90; Herbicidal efficacy against PHBPU (PHBPU: Ipomoea purpurea [25]; [27]): 70; Herbicidal efficacy against ABUTH [26, 27]: 90; Herbicidal efficacy against HORMU (HORMU: Hordeum murinum; [28]): 20; Herbicidal action against HORMU (HORMU: Hordeum murinum): 100% |
